The record followed here is the NIST ThermoML archive (doi:10.1016/j.fluid.2018.05.031).

± gives the expanded uncertainty stated by the source.

For this data set the following is noted: Liquid; Ebulliometric method (Recirculating still).

On to `CO` [methanol], for which the Normal boiling temperature came to 64.50 ± 0.2 °C.
For the compound `COC(C)=O` [methyl ethanoate], the Normal boiling temperature is 56.90 ± 0.2 °C.
